Data taken from PubChem BioAssay (NCI).
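The compound was tested at five concentrations on cells cultured in 96-well plates, with a 48-hour exposure period. TGI denotes the concentration required for complete inhibition of growth.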

What was measured:
Assay in all cases: NCI tumour cell line growth inhibition, 48 h
CAKI-1 renal = tested on: CAKI-1 renal
HCT-15 colon = tested on: HCT-15 colon
SF-268 CNS = tested on: SF-268 CNS
U251 CNS = tested on: U251 CNS
A498 renal = tested on: A498 renal
OVCAR-5 ovarian = tested on: OVCAR-5 ovarian
MALME-3M melanoma = tested on: MALME-3M melanoma
SF-295 CNS = tested on: SF-295 CNS
HOP-62 NSCLC = tested on: HOP-62 NSCLC
CCRF-CEM leukemia = tested on: CCRF-CEM leukemia

| SMILES | TGI (CAKI-1 renal) [µM] | TGI (HCT-15 colon) [µM] | TGI (SF-268 CNS) [µM] | TGI (U251 CNS) [µM] | TGI (A498 renal) [µM] | TGI (OVCAR-5 ovarian) [µM] | TGI (MALME-3M melanoma) [µM] | TGI (SF-295 CNS) [µM] | TGI (HOP-62 NSCLC) [µM] | TGI (CCRF-CEM leukemia) [µM] |
| --- | --- | --- | --- | --- | --- | --- | --- | --- | --- | --- |
| CN1CCN(C(=O)c2cn(Cc3cncn3Cc3ccc4c(c3)OCO4)cc2-c2cccc3ccccc23)CC1 | > 84.9 | > 100 | 66.5 | > 100 | 32.1 | > 100 | 26.6 | 70.6 | > 100 | > 77.2 |
| Nc1[nH]c(=O)nc2c1ncn2C1OC(CO)C(O)C1O (centres undefined) | > 100 | 95.4 | > 100 | > 100 | > 100 | > 100 | > 100 | > 100 | > 100 | 75.3 |
| Clc1ccc2c(NCCCCCCNc3ccnc4cc(Cl)ccc34)ccnc2c1 | 24.1 | 8.08 | 24.8 | 5.82 | 42.3 | 17.9 | 32.6 | 5.56 | 13.8 | 7.53 |
| COC1CC(C)(NC(=O)C(F)(F)F)C2OC(c3ccccc3)OCC2O1 (centres undefined) | > 100 | > 100 | > 100 | > 100 | > 100 | > 100 | > 100 | > 100 | > 100 | > 100 |
| COC(=N)C1(C#N)NC(c2ccsc2)C(C#N)(C#N)NC1c1ccsc1 (centres undefined) | > 100 | > 100 | > 100 | > 100 | > 100 | > 100 | > 100 | > 100 | > 100 | > 100 |
| O=C1Nc2ccccc2/C1=C\c1c(Cl)n(-c2ccccc2)c2ccccc12 | 21.9 | 18.1 | 6.45 | 18.2 | 22.2 | 12.9 | 10.4 | 15.6 | 20.6 | > 100 |
| Cc1nc2c(Br)cc(Br)cc2c(=O)n1-c1ccccc1NC1OC(CO)C(O)C(O)C1O (centres undefined) | > 100 | > 100 | > 100 | > 100 | > 100 | > 100 | > 100 | > 100 | > 100 | > 100 |
| CC(=O)NC1C(OCc2ccccc2)OC(CO)C(O)C1OC(C)C(=O)N[C@@H](C)C(=O)N[C@H](CCC(=O)NCCNCCNc1c2ccccc2nc2cccc([N+](=O)[O-])c12)C(N)=O (some centres undefined) | 0.565 | 1.63 | 2.14 | 3.41 | 0.32 | 5.19 | 0.221 | 1.79 | 5.17 | > 100 |
| FC1=C2C3CCC(C3)C2C1(F)F (centres undefined) | > 100 | > 100 | > 100 | > 100 | > 100 | > 100 | > 100 | > 100 | > 100 | > 100 |
| NC(=O)CCC(N=c1c2ccccc2n(O)c2ccccc12)C(=O)O (centres undefined) |  | > 100 | > 100 | > 100 | > 100 | > 100 | > 100 | > 100 | > 100 | > 100 |
